Reference: patent US9902735B2, “Heteroaryl substituted compounds as RORγ inhibitors” (GlaxoSmithKline Intellectual Property Developement Limited, priority 2014, dated 2018)

Experiments:
Mouse CD4+ cells = assay: Th17 cell differentiation assay (IL-17 ELISA); format: cell-based; settings: mean of multiple test results if tested more than once, read-out: pIC50 in the Th17 cell differentiation assay (converted)
Protocol: Mouse CD4+ cells were purified using the CD4+ T Cell Isolation II Kit according to manufacturer's instructions (Miltenyi Biotec). 96 well plates were pre-coated with anti-mCD3 antibody. Un-coated wells were used as controls. CD4+ Cells were resuspended in RPMI 1640 complete medium and were added to the 96-well plates. Cytokine cocktail and the compound were then added to the wells. Antibodies and cytokines (all from R&D Systems) used in the assay were selected from the following: anti-mCD3; anti-mCD28; anti-mIFNγ; anti-mIL4; mIL-6; mIL-23; mIL-1β; hTGF-β1. The culture was incubated at 37° C. for 3 days and supernatants were collected for ELISA. The IL-17 ELISAs were performed according to manufacturer's instructions (R&D Systems). The results were analyzed using Prism software with non-linear regression to determine pIC50.
The Th17 differentiation culture described above was maintained for 5 days and cells were analyzed by IL-17 and IFN-γ intracellular staining according to manufacturer's instructions (BD Biosciences).

RORγ-LBD = target: T1, RORγ-LBD (Homo sapiens, UniProt P51449); assay: Fluorescence Energy Transfer (FRET) assay; format: biochemical; settings: mean of multiple test results if tested more than once; read-out: pIC50 in the FRET assay (converted)
T1 construct: adding an appropriate amount of biotinylated RORγ-LBD and APC-labeled streptavidin
T1 sequence (P51449 269-508 limits assumed): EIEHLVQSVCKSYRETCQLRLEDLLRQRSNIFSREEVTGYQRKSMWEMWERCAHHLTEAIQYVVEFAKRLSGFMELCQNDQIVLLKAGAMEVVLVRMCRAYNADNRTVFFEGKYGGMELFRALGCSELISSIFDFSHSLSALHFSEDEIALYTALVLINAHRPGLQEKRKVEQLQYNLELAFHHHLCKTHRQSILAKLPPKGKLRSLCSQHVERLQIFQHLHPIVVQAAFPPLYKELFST
Protocol: The assays were performed in an assay buffer consisting of 50 mM NaF, 50 mM 3-(N-morpholino)propanesulfonic acid, pH 7.5, 50 μM 3-[(3-cholamidopropyl)dimethylammonio]-propanesulfonate, 0.1 mg/mL bovine serum albumin, and 10 mM dithiothreitol in 384-well plates (Greiner 784076, Longwood, Fla.). The total volume was 10 μL/well. The europium-labeled SRC1 solution was prepared by adding an appropriate amount of biotinylated SRC and europium labeled streptavidin (PerkinElmer Life and Analytical Sciences, Waltham, Mass.) into assay buffer, with final concentrations of 27 and 3.3 nM, respectively. The allophycocyanin (APC)-labeled-LBD solution was prepared by adding an appropriate amount of biotinylated RORγ-LBD and APC-labeled streptavidin (CR130-100; PerkinElmer Life and Analytical Sciences) at a final concentration of 33 nM each. After 15 min of incubation at room temperature, a 20-fold excess of biotin was added to block the remaining free streptavidin. […] The plates were incubated for 1 h at room temperature and then read on ViewLux (PerkinElmer Life and Analytical Sciences) in LANCE mode configured for europeum-APC labels. Data were collected and analyzed by Activitybase.

human CD4+ T cells = assay: Human peripheral blood CD4+ T cell cultures and cytokine analysis (Th17 polarization); format: cell-based; settings: secreted IL-17A, 5 days Th17 polarization
Protocol: Human biological samples were cryopreserved human CD4+ T cells purchased from AllCells, LLC and Stemcell Technologies, Inc. The CD4+ T cells were differentiated to the Th17 subtype by culturing for 5 days in tissue culture plates coated with anti-CD3 antibody (2 μg/mL) in Iscove's modified Dulbecco's medium (IMDM) containing 10% HI-FBS, 55 μM 2-mercaptoethanol and soluble anti-CD28 (3 μg/mL) in the presence of a Th17 skewing cocktail, including IL-1β (10 ng/mL), IL-6 (30 ng/mL), TGFβ (0.5 ng/mL), IL-21 (10 ng/mL), IL-23 (10 ng/mL), anti-IFNγ (10 μg/mL) and anti-IL-4 (10 μg/mL). To examine compound effects on Th17 polarization, freshly thawed CD4+ cells in IMDM supplemented with all Th17 polarization cocktail constituents (above) were seeded at low cell density (20,000 cells/well) directly into anti-CD3 coated round bottom 96-well plates already containing serially diluted compounds. Cells were incubated undisturbed for 5 days at 37° C. Immediately following culture, supernatant was analyzed for secreted IL-17A and IL-22 protein by MSD electrochemiluminescent cytokine assays (Mesoscale Discovery) and ELISA (Quantikine assay, R&D Systems), respectively. Compound treatment(s) were performed in triplicate. Results are presented as the mean±SD or as mean percent inhibition (±SD) relative to the response to stimulus alone.

IC50 (Mouse CD4+ cells): ~5.01 nM
IC50 (RORγ-LBD): ~50.1 nM
IC50 (human CD4+ T cells; Homo sapiens, CD4+ T, 120 h, read-out: IL17A pIC50 (converted)): 28.8 nM
SMILES: Cc1ncc(C(=O)Nc2cc(Cl)cc(CN3CCN(C(=O)CC4CC4)[C@@H](C)C3)c2C)cc1F [Example 80, (S)—N-(5-chloro-3-((4-(2-cyclopropylacetyl)-3-methylpiperazin-1-yl)methyl)-2-methylphenyl)-5-fluoro-6-methylnicotinamide]
Inhibition Activity (ASSYM MAX) (human CD4+ T cells): 94
